Experiments:
[1] = molecular target: T1, TG2 in the intestinal lamina propria (Homo sapiens, UniProt P21980); experiment: TG2 activity in cryosections of duodenal biopsies from CD patients (5BP, confocal microscopy); type: biochemical; conditions: 1 h before 5BP, mean ± SD, n = 6 patients
T1 construct: from tissue; host or cells: duodenal biopsies from celiac disease patients (unfixed 400 nm cryosections, lamina propria)
T1 sequence (P21980 1-687): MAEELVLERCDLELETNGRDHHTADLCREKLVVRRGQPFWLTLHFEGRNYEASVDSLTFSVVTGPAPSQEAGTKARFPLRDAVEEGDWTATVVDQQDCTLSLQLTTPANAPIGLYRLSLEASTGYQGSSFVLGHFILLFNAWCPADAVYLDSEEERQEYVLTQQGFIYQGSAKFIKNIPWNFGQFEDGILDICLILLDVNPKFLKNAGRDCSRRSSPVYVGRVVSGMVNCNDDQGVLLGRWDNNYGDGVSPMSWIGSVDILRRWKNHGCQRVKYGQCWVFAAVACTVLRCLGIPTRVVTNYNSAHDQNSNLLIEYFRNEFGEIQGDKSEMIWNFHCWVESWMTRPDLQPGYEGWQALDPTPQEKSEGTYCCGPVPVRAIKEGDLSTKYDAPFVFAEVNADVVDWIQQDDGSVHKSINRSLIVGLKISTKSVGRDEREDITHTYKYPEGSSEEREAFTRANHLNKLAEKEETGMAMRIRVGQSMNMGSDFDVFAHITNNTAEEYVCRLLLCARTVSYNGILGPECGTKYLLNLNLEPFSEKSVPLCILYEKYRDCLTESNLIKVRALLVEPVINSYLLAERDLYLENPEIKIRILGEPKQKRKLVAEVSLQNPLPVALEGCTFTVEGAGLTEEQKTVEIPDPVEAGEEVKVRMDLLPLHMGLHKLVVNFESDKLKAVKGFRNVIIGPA
Procedure: For immunofluorescence microscopic investigation of transglutaminase activity, only biopsies with minor macroscopic inflammatory signs were used. After endoscopy, biopsies were immediately washed three times in PBS and cryopreserved in polyvinylpyrrolidone sucrose at 4 °C overnight. Biopsies were mounted on specimen holders using Tissue-Tek O.C.T (Sakura Finetek, Staufen im Breisgau, Germany) compound and frozen in liquid nitrogen. For evaluation of transglutaminase activity by the post-embedding procedure, 400 nm cryosections were obtained using a cryo-ultramicrotome (Leica EM UC6, Leica, Wetzlar, Germany) and mounted on class cover slides. After three brief washes with PBS, tissue sections were incubated with the indicated concentrations of the inhibitors for 1 h in tris buffer. Then, the TG2 substrate 5BP was incubated for 1 h at 37 °C in tris buffer containing DTT at the indicated concentration. Slides were washed three times in PBS, fixed in 4% paraformaldehyde (10 min), permeabilized with 0.5% Triton (10 min) and incubated with blocking solution (0.1% cold water fish skin gelatin + 5% BSA + 5% goat serum, 10 min). Afterwards, a rabbit polyclonal antibody directed against human TG2 (Kan5, kindly provided by Dr T. Mothes, Institute of Laboratory Medicine, University Hospital Leipzig, Germany) was applied at 1:200 dilution in blocking solution overnight at 4 °C. After three washing steps (each 5 min) with PBS, Alexa Fluor-555-conjugated secondary antibody (goat-anti-rabbit, 1:200, Thermo Fisher Scientific) and Alexa Fluor-488-conjugated streptavidin (2 µg/mL, Thermo Fisher Scientific) were incubated at room temperature in the dark for 1 h. After three washes with PBS, samples were covered in ProLong Gold antifade mountant (Thermo Fisher Scientific) and sealed with clear nail polish. Sealed slides were stored in the dark at 4 °C until microscopy.
Imaging was done using a confocal laser scanning microscope (TE2000-E, Nikon, Langen, Germany) and a 60× Plan Apo (NA 1.41) immersion oil objective. The detailed acquisition settings and the corresponding macro (Image J [46]) for image processing can be accessed in the Supplementary Materials methods (S1). Five images per patient where quantified. For quantitation, mean fluorescence intensity of TG2 activity (488 nm channel) was normalized to TG2 expression (555 nm channel) within the intestinal lamina propria.

[2] = tested on: transepithelial passage of P56-88 in Caco-2 cells; experiment: Transepithelial transport of promofluor-conjugated gliadin peptide P56-88 across Caco-2 monolayers (fluorometry); type: cell-based, human; conditions: 3 h; for transepithelial passage of P56-88 (relative basal fluorescence): 7 µg/mL peptide apical in HBSS, normalized to no inhibitor, mean ± SD, n = 3
Procedure: Transepithelial transport of immunogenic and toxic gliadin peptides were examined in Caco-2 cells 7–14 days after confluency. Caco-2 cells were seeded on semi-permeable transwell supports (ThinCert, culture surface: 33.6 mm², pore size: 0.4 µm) in 24-well plates (Greiner Bio One, Pleidelsheim, Germany). Prior to the transport experiments, the integrity of the cell monolayer was tested by measuring the transepithelial electric resistance (TEER) using a volt-ohm meter (Millipore, Schwalbach, Germany). Monolayers with insufficient TEER (<350 Ω/cm^2) were omitted. The synthesis and purification of promofluor-conjugated gliadin peptides were described elsewhere. Cells were either incubated with the immunogenic peptide P56-88 ([…]) or the toxic gliadin peptide P31-43 (LGQQQPFPPQQPY), 7 µg/mL each, in Hank’s balanced salt solution (HBSS) for 3 h. To investigate the role of TG2 on the transport of gliadin peptides, incubation was performed in the presence of ERW1041 and PX-12. After 3 h, basal and apical supernatants were collected, and the relative fluorescence of the basal compartment was quantified using a FLUOstar Optima (BMG Labtech) microplate reader. Background subtraction was performed against conditions, where no labeled peptides were used. Normalization was performed against conditions, where no inhibitors were used.

[3] = molecular target: T2, human transglutaminase 2 (TG2) (Homo sapiens, UniProt P21980); experiment: TG2-mediated cross-linking (transamidation) of pepsin-/trypsin-digested gliadin (PTG) on immobilized TG2; type: biochemical; conditions: for TG2-mediated cross-linking of PTG: 10 nM TG2 coated, 10 µg/mL PTG, 1 h 37 °C, normalized to TG2 without inhibitor, mean ± SD, n = 4
T2 construct: purchased Zedira, Darmstadt, Germany T034
T2 sequence (P21980 1-687): T1 sequence (P21980 1-687)
Procedure: A tissue-culture-treated 96-well plate (83.3924, Sarstedt, Nümbrecht, Germany) was coated for 1 h at 37°C with 10 nM TG2 (T034, Zedira, Darmstadt, Germany) in 50 mM Tris, 1 mM EDTA, 5 mM CaCl2 (pH 7.5) buffer containing 10 mM DTT. After three washes with PBS, the plate was blocked with 2% bovine serum albumin (BSA, Carl Roth GmbH, Karlsruhe, Germany) in PBS for 30 min at room temperature. Then, incubation with 10 µg/mL of pepsin-/trypsin-digested gliadin (PTG, T004, Zedira) ± inhibitors was performed for 1 h at 37 °C. After three washes with PBS, the primary antibody directed against gliadin (1:1000, clone XGY4, Zedira) was applied in BSA 2% at 4 °C overnight on an orbital shaker. The next day, the secondary antibody directed against mouse IgG (1:1000; sc-516102, Santa Cruz Biotechnology, Dallas, TX, USA) was incubated in BSA 2% for 1 h at room temperature on an orbital shaker. After three washes with phosphate buffered saline (PBS), the HRP-substrate TMB (tetramethylbenzidine, Sigma-Aldrich, Darmstadt, Germany) was added (100 µL per well). Photometric quantitation at 655 nm was performed after 15 min using a Clariostar Plus (BMG Labtech, Ortenberg, Germany) microplate reader.

[4] = 100 µM inhibitor, untreated 0.94 ± 0.26 (ERW1041) or 0.91 ± 0.28 (PX-12)

SMILES | TG2 activity normalized against TG2 expression in the lamina propria [1, 4] | effect on the epithelial translocation of P56-88 [2] | TG2-mediated cross-linking of PTG ([3]; 10 µM inhibitor) | TG2-mediated cross-linking of PTG ([3]; 100 µM inhibitor) | reduction of enzymatic modification of gliadin ([3]; at 10 µM and 100 µM) | TG2 activity normalized against TG2 expression in the lamina propria ([1]; 1 µM inhibitor, untreated 0.94 ± 0.26) | transepithelial passage of P56-88 (relative basal fluorescence) ([2]; 1 µM inhibitor) | transepithelial passage of P56-88 (relative basal fluorescence) ([2]; 100 µM inhibitor)
CCC(C)SSc1ncc[nH]1 (centres unmarked) [PX-12, 2-[(1-methylpropyl)dithio]-1H-imidazole] | 0.44 ± 0.21 | no significant effect | 15 ± 3% | 5 ± 1% | more than 80% |  |  | 
O=C(NC[C@@H]1CC(Br)=NO1)[C@@H]1CCCN1C(=O)OCc1cnc2ccccc2c1 [ERW1041] | 0.31 ± 0.17 |  | 48 ± 8% | 11 ± 2% |  | 0.58 ± 0.27 | 33 ± 22% | 24 ± 16%
